Source: publication PMC9645260, “Small-molecule inhibitors of P-Rex guanine-nucleotide exchange factors” (Small GTPases, 2022)

How the values were obtained:
full-length P-Rex2 = molecular target: T1, full-length P-Rex2 (Homo sapiens, UniProt Q70Z35); assay: Liposome-based GEF activity assay, PIP3-stimulated full-length P-Rex2; format: biochemical; conditions: 40 nM P-Rex2, read-out: inhibition of PIP3-stimulated Rac-GEF activity of full-length P-Rex2
T1 construct: Full-length N-terminally EE-tagged P-Rex1, P-Rex2; made in house; host or cells: Sf9 cells (baculovirus)
Procedure: (§1) Full-length N-terminally EE-tagged P-Rex1, P-Rex2, the P-Rex1 DH and DHPH domains and the P-Rex2 DH domain were produced in Sf9 cells using baculoviral transduction and were purified using anti-EE beads, as previously described. Briefly, frozen pellets from 500 ml of Sf9 culture infected with P-Rex expressing high-titre baculovirus were resuspended in ice-cold lysis Sf9-cell lysis buffer 2 (1x PBS, 1% Triton X-100, 5 mM EGTA, 1 mM EDTA, 25 mM NaF, 20 mM β-glycerophosphate, 1 mM DTT, 100 µM PMSF, 10 μg/ml each of leupeptin, pepstatin A, aprotinin and antipain) for 5 min and then ultracentrifuged at 118,000 × g for 1 h at 4°C. Supernatants were incubated with pre-washed anti-EE beads for 90 min on ice with end-over-end rotation. […] Protein concentration and purity were determined by coomassie staining of SDS-PAGE gels. […]
(§2) Liposome-based GEF activity assays were carried out essentially as described, except that GEFs were incubated with inhibitor compounds prior to the assay. […] Small GTPases were isolated using anti-EE antibody-coupled Sepharose beads or glutathione Sepharose beads, as appropriate, by incubation on ice for 90 min with end-over-end rotation, four washes in ice-cold wash buffer and resuspension of beads in Ultima Gold scintillation fluid (Perkin Elmer). ^35S-GTPγS incorporation was assessed by scintillation counting (Packard 1600TR, Liquid Scintillation Analyser).

ITSN1 (DHPH) = molecular target: T2, ITSN1 (DHPH) (Homo sapiens, UniProt Q15811); assay: Liposome-based GEF activity assay, ITSN1; format: biochemical; conditions: 10 µM, 100 nM ITSN1 DHPH
T2 construct: The ITSN1 DHPH domains and Ect2 DHPH domains, produced in and purified from bacteria; host or cells: bacteria
T2 sequence (Q15811 1229-1580 limits assumed): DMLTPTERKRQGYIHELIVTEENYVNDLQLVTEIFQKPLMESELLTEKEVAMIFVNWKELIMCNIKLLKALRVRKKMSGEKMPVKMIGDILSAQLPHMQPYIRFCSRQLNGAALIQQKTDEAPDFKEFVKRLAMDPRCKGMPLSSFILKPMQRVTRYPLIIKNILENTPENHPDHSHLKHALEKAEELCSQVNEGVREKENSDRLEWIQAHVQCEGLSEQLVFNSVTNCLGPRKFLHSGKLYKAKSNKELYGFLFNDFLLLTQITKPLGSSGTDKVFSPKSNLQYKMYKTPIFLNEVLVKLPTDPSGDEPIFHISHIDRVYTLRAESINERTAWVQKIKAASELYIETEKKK
Procedure: as §1, §2

T1 sequence (Q70Z35 whole entry): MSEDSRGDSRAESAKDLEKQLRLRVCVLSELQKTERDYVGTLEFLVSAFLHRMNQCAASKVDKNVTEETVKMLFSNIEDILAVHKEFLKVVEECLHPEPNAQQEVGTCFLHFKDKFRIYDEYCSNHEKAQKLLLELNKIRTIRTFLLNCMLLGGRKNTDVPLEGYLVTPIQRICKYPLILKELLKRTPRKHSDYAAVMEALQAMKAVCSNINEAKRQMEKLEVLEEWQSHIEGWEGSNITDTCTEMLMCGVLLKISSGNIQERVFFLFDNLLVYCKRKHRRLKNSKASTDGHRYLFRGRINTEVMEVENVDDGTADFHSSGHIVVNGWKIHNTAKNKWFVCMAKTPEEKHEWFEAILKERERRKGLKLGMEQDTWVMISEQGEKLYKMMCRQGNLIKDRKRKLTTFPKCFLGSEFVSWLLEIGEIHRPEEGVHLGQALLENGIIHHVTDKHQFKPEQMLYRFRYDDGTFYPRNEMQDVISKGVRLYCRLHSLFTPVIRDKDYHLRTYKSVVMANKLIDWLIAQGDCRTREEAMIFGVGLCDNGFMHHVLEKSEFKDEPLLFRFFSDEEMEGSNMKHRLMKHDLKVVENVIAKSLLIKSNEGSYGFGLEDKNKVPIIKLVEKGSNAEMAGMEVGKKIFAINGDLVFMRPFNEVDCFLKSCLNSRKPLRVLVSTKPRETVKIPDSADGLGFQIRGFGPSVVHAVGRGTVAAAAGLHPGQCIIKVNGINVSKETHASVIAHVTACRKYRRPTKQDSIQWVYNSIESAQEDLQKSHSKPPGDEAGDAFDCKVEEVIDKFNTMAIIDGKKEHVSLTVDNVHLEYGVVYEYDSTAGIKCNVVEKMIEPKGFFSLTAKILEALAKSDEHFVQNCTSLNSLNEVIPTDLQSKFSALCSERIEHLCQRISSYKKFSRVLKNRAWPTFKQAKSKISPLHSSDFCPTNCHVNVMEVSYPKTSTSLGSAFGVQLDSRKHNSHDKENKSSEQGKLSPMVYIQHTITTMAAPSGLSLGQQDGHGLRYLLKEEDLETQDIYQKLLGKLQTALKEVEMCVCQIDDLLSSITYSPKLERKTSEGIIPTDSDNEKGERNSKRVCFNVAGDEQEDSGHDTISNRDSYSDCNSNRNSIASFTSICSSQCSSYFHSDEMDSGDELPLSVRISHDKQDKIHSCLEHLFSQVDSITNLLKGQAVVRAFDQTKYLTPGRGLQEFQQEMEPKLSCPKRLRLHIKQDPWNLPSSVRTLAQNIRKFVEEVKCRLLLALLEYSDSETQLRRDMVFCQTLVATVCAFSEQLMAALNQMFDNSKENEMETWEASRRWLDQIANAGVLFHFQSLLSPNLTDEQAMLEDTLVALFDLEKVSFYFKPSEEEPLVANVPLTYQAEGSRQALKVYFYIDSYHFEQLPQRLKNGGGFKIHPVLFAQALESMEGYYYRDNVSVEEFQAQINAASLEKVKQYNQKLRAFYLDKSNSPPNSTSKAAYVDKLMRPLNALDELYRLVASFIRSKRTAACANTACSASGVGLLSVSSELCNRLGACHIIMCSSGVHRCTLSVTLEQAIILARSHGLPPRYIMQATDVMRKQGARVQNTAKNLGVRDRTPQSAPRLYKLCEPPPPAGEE

COc1ccc(-c2[nH]nc3c2C(c2ccc(-c4ccc(Cl)cc4)o2)C(C#N)=C(N)O3)cc1 (centres unmarked) [PREX-in1, 6-amino-4-[5-(4-chlorophenyl)-2-furyl]-3-(4-methoxyphenyl)-2,4-dihydropyrano[2,3-c]pyrazole-5-carbonitrile]
inhibition at 10 µM (full-length P-Rex2): 82%
effect on GEF activity of ITSN1 (ITSN1 (DHPH)): none of the other GEFs were affected
